Data: BindingDB's records for doi:10.1016/j.bmc.2007.03.014 (Universit&#233, 2007)

Test: Reversal of P-gp-mediated multidrug resistance to vinblastine in human CEM/VLB500 cells after 3 days by resazurin assay

With `O=C(Nc1ccccc1C(=O)N[C@@H]1CCCC[C@@H]1N1CCN(c2ccccc2)CC1)c1cnc2ccccc2c1` (racemic) [rac-cis-N-(2-(2-(4-phenylpiperazin-1-yl)cyclohexylcarbamoyl)phenyl)quinoline-3-carboxamide] as the compound, how does the EC50 read?
The EC50 was 648 nM.

For `COc1ccc(CN2CCN(c3ccc(NC(=O)c4ccccc4NC(=O)c4cnc5ccccc5c4)cc3)CC2)cc1OC` [N-(2-(4-(4-(3,4-dimethoxybenzyl)piperazin-1-yl)phenylcarbamoyl)phenyl)quinoline-3-carboxamide], which EC50 is on record?
The EC50 was 124 nM.

For `COc1ccc(CCN2CCC[C@@H]2CNC(=O)c2ccccc2NC(=O)c2cnc3ccccc3c2)cc1OC` [(R) N-(2-((1-(3,4-dimethoxyphenethyl)pyrrolidin-2-yl)methylcarbamoyl)phenyl)quinoline-3-carboxamide], which EC50 is on record?
Its EC50 is 482 nM.

Which EC50 does the source give for `COc1ccc(CN2CCN(c3ccc(NC(=O)c4cc(OC)c(OC)cc4NC(=O)c4cnc5ccccc5c4)cc3)CC2)cc1OC` [N-(2-(4-(4-(3,4-dimethoxybenzyl)piperazin-1-yl)phenylcarbamoyl)-4,5-dimethoxyphenyl)quinoline-3-carboxamide] here?
The EC50 was 59 nM.

For `COc1ccc(CCN2CCC[C@H]2CNC(=O)c2ccccc2NC(=O)c2cnc3ccccc3c2)cc1OC` [(S) N-(2-((1-(3,4-dimethoxyphenethyl)pyrrolidin-2-yl)methylcarbamoyl)phenyl)quinoline-3-carboxamide], which EC50 is on record?
The EC50 was 329 nM.

With `COc1cc2c(cc1OC)CN(CCc1ccc(NC(=O)c3cc(OC)c(OC)cc3NC(=O)c3cnc4ccccc4c3)cc1)CC2` as the compound, how does the EC50 read?
The EC50 was 68 nM.
